From US9975869B2 (Sphaera Pharma Pvt. Ltd., priority 2013, dated 2018)

system: AMPK; assay: AMPK activation potential, cell based ELISA (Phospho-AMPKα Thr172) in Hep G2 cells; conditions: 10 nm concentration; Hep G2 liver cells; % activity with DMSO control as 100%; 30 min incubation for Epicatechin analogs
Method: Testing of Compounds for Their AMPK Activation Potential
AMPK activation potential of the compounds was evaluated using cell based ELISA. Hepatoma (Hep G2) liver cells were maintained in a T 75 culture flask-containing 25 mM DMEM+10% fetal calf serum. The cells were maintained in a T 75 culture flask-containing medium (DMEM+10% fetal calf serum). On reaching a confluence of 70 to 80%, the cells were seeded in a 96 well plate at a density of 40,000 cells per well in 25 mM DMEM+10% FCS medium. The plates were then incubated at 37° C. with 5% CO2 for 24 hours. Various concentrations of drugs were prepared in DMSO and diluted to required concentration with the medium and incubated at 37° C. with 5% CO2 for 30 min and 1 h for Epicatechin analogs and 11-BHP analogs respectively. Metformin was used as positive control. Cells were fixed with 4% formaldehyde for 30 minutes at room temperature and washed three times with PBS containing 0.1% Triton X-100. Endogenous peroxidase was quenched with 1% H2O2 in PBS-T (0.1% Tween 20) for 30 minutes and washed three times in PBS-T. Cells were blocked with 1% BSA in PBS-T for 1 hour. The cells were incubated with 1:1000 dilution primary antibody (Phospho-AMPKα (Thr172) Rabbit mAb, Cell Signaling in PBS-T containing 5% BSA at 4° C. overnight. The cells were then washed three times with PBS-T for 5 minutes and incubated with 1:1000 dilution secondary antibody (Anti-rabbit IgG, HRP-linked Antibody, Cell Signaling) in PBS-T with 1% BSA for 1 hour at RT. Cells were washed three times with PBS-T for 5 minutes The cells were incubated with 100 μl TMB substrate solution for 30 minutes and the reaction was stopped with 100 μl of 2N H2SO4. Then the plate was read at 450 nm using ELISA plate reader and absorbance recorded. % activity was calculated using DMSO control as 100%. All compounds of the present invention, as exemplified and encompassed are found to be active.

| SMILES | % pAMPK(at 10 nm) [%] |
| --- | --- |
| Oc1ccc([C@H]2Oc3ccccc3C[C@H]2O)cc1O (racemic) [Compound 1002, Cis (±) 3-hydroxychroman-2-yl)benzene-1,2-diol] | 108 |
| Oc1ccc([C@H]2Oc3cc(O)ccc3C[C@H]2O)cc1 (racemic) [Compound 1004, Cis (±) 2-(4-hydroxyphenyl)chroman-3,7-diol] | 114 |
| Oc1cccc([C@H]2Oc3cccc(O)c3C[C@H]2O)c1 (racemic) [Compound 1005, Cis (±) 2-(3-hydroxyphenyl)chroman-3,5-diol] | 102 |
| Oc1ccc([C@H]2Oc3cccc(O)c3C[C@H]2O)cc1 (racemic) [Compound 1006, Cis (±) 2-(4-hydroxyphenyl)chroman-3,5-diol] | 103 |
| Oc1cccc([C@H]2Oc3cc(O)ccc3C[C@H]2O)c1 (racemic) [Compound 1007, Cis (±) 2-(3-hydroxyphenyl)chroman-3,7-diol] | 113 |
| Oc1ccc([C@H]2Oc3cc(O)cc(O)c3C[C@H]2O)cc1 (racemic) [Compound 1008, Cis (±) 2-(4-hydroxyphenyl)chroman-3,5,7-triol] | 103 |
| Oc1cc(O)c2c(c1)O[C@H](c1ccccc1)[C@H](O)C2 (racemic) [Compound 1015, Cis (±) 2-phenylchroman-3,5,7-triol] | 119 |
| COc1cccc([C@H]2Oc3cc(O)ccc3C[C@H]2O)c1 (racemic) [Compound 1017] | 110 |
| COc1ccc2c(c1)O[C@H](c1cccc(O)c1)[C@H](O)C2 (racemic) [Compound 1018] | 100 |
| COc1cccc([C@H]2Oc3cc(OC)ccc3C[C@H]2O)c1 (racemic) [Compound 1019] | 101 |
| Cc1c([C@H]2Oc3cc(O)cc(O)c3C[C@H]2O)ccc(O)c1O (racemic) [Compound 1031, Cis (±) 2-(3,4-dihydroxy-2-methylphenyl)chroman-3,5,7-triol] | 101 |
| Oc1cc(O)c2c(c1)O[C@H](c1ccc(O)c(O)c1F)[C@H](O)C2 (racemic) [Compound 1032, Cis (±) 2-(2-fluoro-3,4-dihydroxyphenyl)chroman-3,5,7-triol] | 104 |
| Oc1cc(O)c2c(c1)O[C@H](c1cc(O)c(O)cc1F)[C@H](O)C2 (racemic) [Compound 1033, Cis (±) 2-(2-fluoro-4,5-dihydroxyphenyl)chromane-3,5,7-triol] | 107 |
| Oc1cc(O)c2c(c1)O[C@H](c1ccc(O)c(F)c1)[C@H](O)C2 (racemic) [Compound 1034, Cis (±) 2-(3-fluoro-4-hydroxyphenyl)chromane-3,5,7-triol] | 107 |
| Cc1cc([C@H]2Oc3cc(O)cc(O)c3C[C@H]2O)cc(O)c1O (racemic) [Compound 1035, Cis (±) (2-(3,4-dihydroxy-5-methylphenyl)chromane-3,5,7-triol] | 102 |
| COc1cc([C@H]2Oc3cc(O)ccc3C[C@H]2O)ccc1C (stereo in doubt) [Compound 1026, 2-(3-methoxy-4-methylphenyl)chromane-3,7-diol] | 101 |
| Cc1ccc([C@H]2Oc3cc(O)ccc3C[C@H]2O)cc1O (stereo in doubt) [Compound 1027, 2-(3-hydroxy-4-methylphenyl)chromane-3,7-diol] | 94 |
| COc1cc(C2Oc3cc(O)ccc3C[C@H]2O)ccc1F (stereo in doubt) [Compound 1028, 2-(4-fluoro-3-methoxyphenyl)chromane-3,7-diol] | 101 |
| Oc1ccc2c(c1)OC(c1ccc(F)c(O)c1)[C@H](O)C2 (stereo in doubt) [Compound 1029, 2-(4-fluoro-3-hydroxyphenyl)chromane-3,7-diol] | 93 |

| SMILES | % pAMPK(at 10 nm) [%] |
| --- | --- |
| CCCO[C@@H]1Cc2ccc(O)cc2OC1c1cccc(O)c1 (stereo in doubt) [Compound 1030, 2-(3-hydroxyphenyl)-3-propoxychroman-7-ol] | 94 |
| [2H]C1([2H])c2c(O)cc(O)cc2O[C@H](c2ccc(O)c(O)c2)[C@@H]1O [Compound 1036, (2R,3R)-2-(3,4-dihydroxyphenyl)chromane-4,4-d2-3,5,7-triol] | 105 |
| [2H][C@]1(c2ccc(O)c(O)c2)Oc2cc(O)cc(O)c2C[C@H]1O [Compound 1037, (2R,3R)-2-(3,4-dihydroxyphenyl)chromane-2-d-3,5,7-triol] | 110 |
| C[n+]1cccc(C(=O)O[C@@H]2Cc3c(O)cc(O)cc3O[C@@H]2c2ccc(O)c(O)c2)c1 [Compound 1041, 3-((((2R,3R)-2-(3,4-dihydroxyphenyl)-5,7-dihydroxychroman-3-yl)oxy)carbonyl)-1-methylpyridin-1-ium] | 88 |
| CC(C)(C)COC(=O)Oc1cc([C@H]2Oc3cc(O)cc(O)c3C[C@H]2O)ccc1O [Compound 1042, 2-hydroxy-5-((2R,3R)-3,5,7-trihydroxychroman-2-yl)phenyl neopentyl carbonate] | 95 |
| CCCCCCCC(=O)Oc1ccc([C@H]2Oc3cc(O)cc(O)c3C[C@H]2O)cc1O [Compound 1043, 2-hydroxy-4-((2R,3R)-3,5,7-trihydroxychroman-2-yl)phenyl octanoate] | 98 |
| CC(C)NC(=O)Oc1ccc([C@H]2Oc3cc(O)cc(O)c3C[C@H]2O)cc1OC(=O)NC(C)C [Compound 1044, 4-((2R,3R)-3,5,7-trihydroxychroman-2-yl)-1,2-phenylene bis(isopropylcarbamate)] | 96 |
| CC(C)(C)COC(=O)O[C@@H]1Cc2c(O)cc(O)cc2O[C@@H]1c1ccc(O)c(O)c1 [Compound 1045, (2R,3R)-2-(3,4-dihydroxyphenyl)-5,7-dihydroxychroman-3-yl neopentyl carbonate] | 105 |
| CC(C)NC(=O)O[C@@H]1Cc2c(O)cc(O)cc2O[C@@H]1c1ccc(O)c(O)c1 [Compound 1046, (2R,3R)-2-(3,4-dihydroxyphenyl)-5,7-dihydroxychroman-3-yl isopropylcarbamate] | 101 |
| CN(C)C(=O)O[C@@H]1Cc2c(O)cc(O)cc2O[C@@H]1c1ccc(O)c(O)c1 [Compound 1047, (2R,3R)-2-(3,4-dihydroxyphenyl)-5,7-dihydroxychroman-3-yl dimethylcarbamate] | 100 |
| O=C(OCc1ccccc1)Oc1ccc([C@H]2Oc3cc(O)cc(O)c3C[C@H]2O)cc1OC(=O)OCc1ccccc1 [Compound 1048, dibenzyl (4-((2R,3R)-3,5,7-trihydroxychroman-2-yl)-1,2-phenylene) bis(carbonate)] | 103 |
| COC(=O)Oc1ccc([C@H]2Oc3cc(O)cc(O)c3C[C@H]2O)cc1OC(=O)OC [Compound 1049, dimethyl (4-((2R,3R)-3,5,7-trihydroxychroman-2-yl)-1,2-phenylene) bis(carbonate)] | 105 |
| CC(C)COC(=O)Oc1cc(OC(=O)OCC(C)C)c2c(c1)O[C@H](c1ccc(O)c(O)c1)[C@H](O)C2 [Compound 1050, (2R,3R)-2-(3,4-dihydroxyphenyl)-3-hydroxychromane-5,7-diyl diisobutyl bis(carbonate)] | 91 |
| O=C(NCc1ccccc1)Oc1cc(OC(=O)NCc2ccccc2)c2c(c1)O[C@H](c1ccc(OC(=O)NCc3ccccc3)c(OC(=O)NCc3ccccc3)c1)[C@H](O)C2 [Compound 1051, 4-((2R,3R)-5,7-bis((benzylcarbamoyl)oxy)-3-hydroxychroman-2-yl)-1,2-phenylene bis(benzylcarbamate)] | 85 |
| O=C(OCc1ccccc1)Oc1cc(OC(=O)OCc2ccccc2)c2c(c1)O[C@H](c1ccc(OC(=O)OCc3ccccc3)c(OC(=O)OCc3ccccc3)c1)[C@H](O)C2 [Compound 1052, dibenzyl (4-((2R,3R)-5,7-bis(((benzyloxy)carbonyl)oxy)-3-hydroxychroman-2-yl)-1,2-phenylene) bis(carbonate)] | 103 |
| CCOC(=O)O[C@@H]1Cc2c(O)cc(O)cc2O[C@@H]1c1ccc(O)c(O)c1 [Compound 1053, (2R,3R)-2-(3,4-dihydroxyphenyl)-5,7-dihydroxychroman-3-yl ethyl carbonate] | 94 |
| CC(C)OC(=O)O[C@@H]1Cc2c(O)cc(O)cc2O[C@@H]1c1ccc(O)c(O)c1 [Compound 1055, (2R,3R)-2-(3,4-dihydroxyphenyl)-5,7-dihydroxychroman-3-yl isopropyl carbonate] | 105 |
| COC(=O)CNC(=O)O[C@@H]1Cc2c(O)cc(O)cc2O[C@@H]1c1ccc(O)c(O)c1 [Compound 1056, methyl ((((2R,3R)-2-(3,4-dihydroxyphenyl)-5,7-dihydroxychroman-3-yl)oxy)carbonyl)glycinate] | 112 |
